Assay [1] concerns the target T1, HLA-A2 (Homo sapiens, UniProt P04439, D140Y/D185E/D98H/E176V/E277Q/G131W/G231S/I119V/I121R/I166T/I218V/L300P/L318F/N151K/N90K/P208A/P217A/Q86G/Q94H/R138H/R169H/T345S).
T1 construct: The T2 cell expresses HLA-A2 and is TAP1 and TAP2 deficient; endogenous in cells; host or cells: T2 cells
Kind of assay: T2 binding assay (HLA-A2 stabilisation on T2 cells, fluorescence index). How it is done: The sequences are derived from HPV 16 E2. T2 cells were loaded with various concentrations of peptides. Level of surface class I molecules were assessed by flow cytometric analysis using mouse monoclonal antibodies specific for HLA-A2. Fluorescence index=Fluorescence after peptide stimulation/Fluorescence without peptide −1.
Since little was known about the MHC class I epitopes for E2, HLA-A2 binding sequences derived from HPV 16 E2 were investigated. […] To test the binding affinity of these peptides to HLA-A2, a T2 binding assay was performed. The T2 cell expresses HLA-A2 and is TAP1 and TAP2 deficient.

The subject of assay [2] is C1R.ADD target cells pulsed with E2 peptides. Kind of assay: IFN-gamma ELISPOT assay in immunized AAD mice, response to E2. Type of assay: in vivo, HLA-A2 transgenic mice (AAD). Particulars: for IFN-gamma producing cells (ELISPOT) / T cell response to E2 (IFN-gamma ELISPOT), in words: AAD mice; for IFN-gamma producing cells (ELISPOT): E2 peptides + GM-CSF + anti-CD40 in IFA, boosted with E2 peptides in IFA; for T cell response to E2 (IFN-gamma ELISPOT), in words: protocol as labelled. The source says: AAD Mice were immunized with three E2 peptides. […] A target cell, C1R.ADD, was pulsed with peptides. C1R.ADD alone was used as negative control, and E7 86-93 was used as a specificity control. Mice are immunized with the indicated 1st immunization and are then given the indicated 2nd immunization (booster immunization) four weeks later. The G1, G2, and G3 immunization protocols employed are as follows: G1 (1st immunization: IFA+GM-CSF+anti-CD40 antibody+E2 peptides; 2nd immunization: IFA+E2 peptides); G2 (1st immunization: IFA+GM-CSF+anti-CD40 antibody+E2 peptides; 2 immunization: none); G3 (1st immunization: none; 2nd immunization: IFA+E2 peptides).
AAD Mice were immunized with different combinations of VLP-E7E2 and E2 peptides with/without Gm-CSF and αCD40. Target cells were pulsed with E2 peptide. Immunization with E7 11-20 peptides is used as a control. The G1 and G2 immunization protocols employed are as follows: G1 (1st immunization: IFA+GM-CSF+anti-CD40 antibody+E2 69-77 peptides); G2 (1st immunization: L1-VLP-L2-E2-E7+GM-CSF+anti-CD40 antibody).
Target cells are C1R.ADD cells pulsed with the indicated peptides.
(§1) Immunization: Mice were immunized subcutaneously at the base of the tail with the chimeric VLPs. GM-CSF (Preprotech, Rocky Hill, N.J.) was given the day before and the same day as the VLP injection. Anti-CD40 (SouthernBiotech, Birmingham Ala.) was given with the VLP. Mice were also immunized with 50 nmoles of peptide in incomplete Freund's adjuvant (IFA) with or without GM-CSF (5 μg/mouse) and anti-CD40 (10 μg/mouse). All vaccines were prepared immediately prior to injection. Each group had 4 mice, and the pooled spleen cells from four mice were used for assays. 10 μg of VLP-E7E2 was given to a mouse. The MW of the VLP-E7E2 is about 5280 Kd (72×L1@55 Kd=3960 Kd, and 12×L2E7E2@110 kd=1320 Kd). The number of moles of VLP-E7E2 in 10 μg of total protein is about […].
ELISPOT assay: The number of IFN-gamma-producing cells is also determined by ELISPOT assay. The anti-IFN-gamma antibody, 5 μg/ml, in PBS are coated on Millipore's multiscreen-HA plate (Millipore, Marlborough, Mass.) overnight at 4° C. The plate is blocked by incubation in RPMI containing 10% FCS for 3 hours at room temperature, and then the plate is washed two or three times with PBS. Target cells, EL-4 or C1R.ADD, are incubated with or without peptides for 2 hour at room temperature, washed twice. Then, they were placed at 5,000 per well. The effector cells were from 40,000 to 50,000 per well. After a 20 hour incubation period at 37° C., the plate is washed six times with PBS containing 0.05% Tween 20. The biotin-labeled anti-IFN-gamma, at 2 μg/ml, is added to the plate. After a 3 hour incubation period at room temperature, the plate is washed six times, and developed using an ABC kit from Vector Lab (Burlingame, Calif.). The spots are counted using Immunspot™ CTL (Cleveland Ohio). Data are expressed as an average from triplicate wells.
Induction of CD8+ T Cell Response to E2 Peptides. […] One group of mice was boosted with E2 peptides in IFA emulsion (IFA-E2) two weeks later. An IFN-gamma ELISPOT assay was performed using spleen cells collected either two or four weeks after vaccination as shown in FIG. 14. The immunization protocol is shown in Table 4 below (50 nmoles of each immunogen was employed; “E2s” refers to E2 peptides).
Enhancing CTL Response to E2. […] When AAD mice were immunized with either 50 nmoles E2 69-77 with immune modulators in IFA or 24 pmoles of VLP-E7E2 with immune-modulators in aqueous solution, a marginal CD8+ T cell response to E2 was detected by ELISPOT assay using fresh isolated spleen cells from both groups of mice (FIG. 15, Panel A and Panel B). […]

The test system of assay [3] is wild type (SEQ ID NO: 1) and modified (SEQ ID NO: 9) E2 peptides. Put plainly: Elispot assay of mice immunized with wild type or modified E2 138-147 peptide. Conditions: mice immunized with the labelled peptide. Type of assay: in vivo.
For assay [4], the system named is EL-4 target cells pulsed with E7 49-57 peptides. Put plainly: CTL assay (51Cr release) with spleen cells of immunized C57BL/6 mice. Type of assay: in vivo. Conditions: given in aqueous solution with VLP-E7E2. How it is done:
as §1
(§2) CTL assay: Two (or three) weeks after immunization, spleens were aseptically removed and single cell suspensions are prepared. […] Cytolytic activity of cells is measured by a 4-h assay with ^51Cr-labeled EL-4 or C1R.AAD target cells in triplicate wells. Percent ^51Cr release is calculated as 100×(experimental release-spontaneous release)/(maximum release-spontaneous release). Maximum release is determined from supernatants of cells that are lysed by addition of […]. Spontaneous release is determined from target cells culture in medium. Data are expressed as an average from triplicate wells. […]

In assay [5] the test system is C1R.AAD target cells pulsed with E7 11-20 and E7 86-93 peptides. Put plainly: CTL assay (51Cr release) with spleen cells of immunized AAD mice, response to E7. Type of assay: in vivo, HLA-A2 transgenic mice (AAD). Conditions: co-injected in aqueous solution. How it is done:
as §1, §2

“Also recorded” adds a separate entry of the source.

Regarding ALQAIELQL [E2 69-77, HPV 16 E2 peptide], in assay [1], the “binding to HLA-A2, in words” value is “high binding affinity; also recorded: displayed binding ability” and the “concentration at FI 0.5” value was determined as 50 µM. In assay [2], the “IFN-gamma producing cells (ELISPOT)” value amounted to 32 spots/million and the “T cell response to E2 (IFN-gamma ELISPOT), in words” value (“T cell response to E2” for short) is given as “induce a CD8+ T cell response; also recorded: immunogenic”.
Consider RLNVCQDKIL [E2 7-16, HPV 16 E2 peptide], for which the “binding to HLA-A2, in words” value in assay [1] is reported as “no binding activity”.
With “TLQDVSLEV [E2 93-101, HPV 16 E2 peptide]”, the “binding to HLA-A2, in words” value in assay [1] is given as “did not bind; also recorded: no binding activity”. For the same molecule, in assay [2], the “T cell response to E2” value was “did not elicit a T cell response”.
For the molecule YICEEASVTV [E2 138-147], in assay [1], the “binding to HLA-A2, in words” value is given as “high binding affinity; also recorded: displayed binding ability” and the “concentration at FI 0.5” value stood at 50 µM. Moreover, in assay [2], the “IFN-gamma producing cells (ELISPOT)” value is 53 spots/million and the “T cell response to E2” value is given as “induce a CD8+ T cell response; also recorded: immunogenic”. Moreover, the “IFN-gamma production (ELISPOT), response to E2” value in assay [2] (boosted with E2 peptides in IFA four weeks after the initial immunization) is listed as “more immunogenic”. Moreover, the “immune response to wild type and modified E2 peptides (Elispot)” value in assay [3] is “failed to elicit an immune response”.
YLAEEASVTV [E2 138-147 modified]: the “binding to HLA-A2, in words” value in assay [1] is listed as “higher HLA.A2 binding affinity”. Also, the “immune response to wild type and modified E2 peptides (Elispot)” value in assay [3] (listed as modified peptide (SEQ ID NO: 9)) is recorded as “elicit an immune response to both”; in assay [3] (listed as new peptide (SEQ ID NO: 9)), “more immunogenic”.

B1: IL-2: murine IL-2 (Preprotech) (protein, UniProt P04351 21-169, looked up)
Interleukin-2: APTSSSTSSSTAEAQQQQQQQQQQQQHLEQLLMDLQELLSRMENYRNLKLPRMLTFKFYLPKQATELKDLQCLEDELGPLRHVLDLTQSKSFQLEDAENFISNIRVTVVKLKGSDNTFECQFDDESATVVDFLRRWIAFCQSIISTSPQ
B1: in assay [4], the “effect on the VLP-E7E2 induced CTL response” value is given as “no effect”. In addition, the “effect of co-injection on the VLP-E7E2-induced CTL response to E7” value in assay [5] is recorded as “no effect”.

The values are drawn from patent US7691579B2, “Methods and compositions for producing an enhanced immune response to a human papillomavirus immunogen” (priority 2005, dated 2010).
